Results on 27 molecules are retold here after US8846719B2, “Isoxazolo-pyridine derivatives” (Roche Palo Alto LLC, priority 2007, dated 2014).

This assay concerns the target human GABA A receptor α5β3γ2 (Homo sapiens (Human), UniProt P18507+P31644). The assay can be described thus: [3H]flumazenil competition binding assay, human GABA A α5β3γ2 receptors expressed in HEK293 cells. The following applies: human receptor; displacement of [3H]flumazenil (0.5 nM); means of two determinations; read-out: hKi GABAAa5. The method, boiled down:
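Competition for [3H]flumazenil binding on membranes of HEK293 cells transiently transfected with human α5β3γ2 receptors, in Krebs-tris buffer pH 7.5.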
In general terms: Displacement assays read how much labelled ligand stays bound in the presence of the test substance.

Molecules are shown by their SMILES.

As to `Cc1onc(-c2ccc(F)cc2)c1COc1ccc(C(=O)N2CCSCC2)cn1` [Example 111, {6-[3-(4-Fluoro-phenyl)-5-methyl-isoxazol-4-ylmethoxy]-pyridin-3-yl}-thiomorpholin-4-yl-methanone], the Ki was found to be 10.4 nM. Turning to `Cc1onc(-c2cccc(F)c2)c1COc1ccc(C(=O)NC2CC2)cn1` [Example 92, N-Cyclopropyl-6-[3-(3-fluoro-phenyl)-5-methyl-isoxazol-4-ylmethoxy]-nicotinamide], the Ki came out at 41.3 nM. The value for `O=C(NC1CCOCC1)c1ccc(OCc2c(-c3ccc(F)cc3)noc2C(F)(F)F)nc1` [Example 144, 6-[3-(4-Fluoro-phenyl)-5-trifluoromethyl-isoxazol-4-ylmethoxy]-N-(tetrahydro-pyran-4-yl)-nicotinamide] was 12.5 nM; that for `Cc1onc(-c2cccnc2)c1COc1ccc(C(=O)NC(C)C)cn1` [Example 158, N-Isopropyl-6-(5-methyl-3-pyridin-3-yl-isoxazol-4-ylmethoxy)-nicotinamide] was 31.7 nM. For `Cc1ccc(-c2noc(C)c2COc2ccc(C(=O)NC3CCOCC3)cn2)cc1` [Example 251, 6-(5-Methyl-3-p-tolyl-isoxazol-4-ylmethoxy)-N-(tetrahydro-pyran-4-yl)-nicotinamide], the Ki came to 0.9 nM.

Consider `Cc1onc(-c2ccncc2)c1COc1ccc(C(=O)NC2CCOCC2)cn1` [Example 150, 6-(5-Methyl-3-pyridin-4-yl-isoxazol-4-ylmethoxy)-N-(tetrahydro-pyran-4-yl)-nicotinamide], for which the Ki was 5.6 nM. Consider `Cc1onc(-c2ccccc2)c1COc1ccc(C(=O)NCc2nc(C3CC3)no2)cn1` [Example 19, N-(3-Cyclopropyl-[1,2,4]oxadiazol-5-ylmethyl)-6-(5-methyl-3-phenyl-isoxazol-4-ylmethoxy)-nicotinamide], for which the Ki worked out at 13.1 nM. Consider `Cc1onc(-c2ccccc2)c1COc1ccc(C(=O)NC2(C)COC2)cn1` [Example 232, N-(3-Methyl-oxetan-3-yl)-6-(5-methyl-3-phenyl-isoxazol-4-ylmethoxy)-nicotinamide], for which the Ki was determined as 1.4 nM. As for `Cc1onc(-c2ccccc2)c1COc1ccc(C(=O)N[C@@H]2CCOC(C)(C)C2)cn1` (racemic) [Example 32, (R,S)—N-(2,2-Dimethyl-tetrahydro-pyran-4-yl)-6-(5-methyl-3-phenyl-isoxazol-4-ylmethoxy)-nicotinamide], the figure is 8 nM; as for `Cc1onc(-c2ccccc2)c1COc1ccc(C(=O)N[C@@H]2CCC[C@H]2O)cn1` (single isomer, unassigned) [Example 213, N-((1R,2R)-2-Hydroxy-cyclopentyl)-6-(5-methyl-3-phenyl-isoxazol-4-ylmethoxy)-nicotinamide or N-((1S,2S)-2-hydroxy-cyclopentyl)-6-(5-methyl-3-phenyl-isoxazol-4-ylmethoxy)-nicotinamide], 1.6 nM; as for `Cc1onc(-c2ccncn2)c1COc1ccc(C(=O)NC(C)C)cn1` [Example 313, N-Isopropyl-6-(5-methyl-3-pyrimidin-4-yl-isoxazol-4-ylmethoxy)-nicotinamide], 3 nM. Turning to `Cc1onc(-c2ccccc2)c1COc1ccc(C(=O)N2CCC(O)CC2)cn1` [Example 187, (4-Hydroxy-piperidin-1-yl)-[6-(5-methyl-3-phenyl-isoxazol-4-ylmethoxy)-pyridin-3-yl]-methanone], the Ki was 73.4 nM.

As to `CC(C)NC(=O)c1ccc(OCc2conc2-c2ccc(F)cc2)nc1` [Example 323, 6-[3-(4-Fluoro-phenyl)-isoxazol-4-ylmethoxy]-N-isopropyl-nicotinamide], the Ki came to 7.3 nM. For the molecule `Cc1onc(-c2ccccc2)c1COc1ccc(C(=O)NCC2(O)CC2)cn1` [Example 194, N-(1-Hydroxy-cyclopropylmethyl)-6-(5-methyl-3-phenyl-isoxazol-4-ylmethoxy)-nicotinamide], the Ki stood at 2.1 nM. The value for `Cc1onc(-c2cccc(F)c2)c1COc1ccc(C(=O)NC2CCOCC2)cn1` [Example 93, 6-[3-(3-Fluoro-phenyl)-5-methyl-isoxazol-4-ylmethoxy]-N-(tetrahydro-pyran-4-yl)-nicotinamide] was 1.7 nM. The value for `Cc1onc(-c2ccncc2)c1COc1ccc(C(=O)N2CCOCC2)cn1` [Example 151, [6-(5-Methyl-3-pyridin-4-yl-isoxazol-4-ylmethoxy)-pyridin-3-yl]-morpholin-4-yl-methanone] was 84.5 nM. As for `CC(C)(C)OC(=O)N1CC(NC(=O)c2ccc(OCc3conc3-c3ccc(Cl)cc3)nc2)C1` [Example 351, 3-({6-[3-(4-Chloro-phenyl)-isoxazol-4-ylmethoxy]-pyridine-3-carbonyl}-amino)-azetidine-1-carboxylic acid tert-butyl ester], the figure is 55.5 nM; as for `Cc1onc(-c2ccc(F)cn2)c1COc1ccc(C(=O)NCC2CC2)cn1` [Example 292, Cyclopropylmethyl-6-[3-(5-fluoro-pyridin-2-yl)-5-methyl-isoxazol-4-ylmethoxy]-nicotinamide], 0.4 nM; as for `Cc1onc(-c2ccccc2)c1COc1cc(C(F)(F)F)c(C(=O)NC(C)C)cn1` [Example 62, N-Isopropyl-6-(5-methyl-3-phenyl-isoxazol-4-ylmethoxy)-4-trifluoromethyl-nicotinamide], 14.6 nM. With `Cc1onc(-c2ccccc2)c1COc1ccc(C(=O)NC2CCS(=O)(=O)CC2)cn1` [Example 33, N-(1,1-Dioxo-hexahydro-1,6-thiopyran-4-yl)-6-(5-methyl-3-phenyl-isoxazol-4-ylmethoxy)-nicotinamide], the Ki was 4.9 nM. As for `Cc1onc(-c2ccc(Cl)cc2F)c1COc1ccc(C(=O)NC(C)C)cn1` [Example 270, 6-[3-(4-Chloro-2-fluoro-phenyl)-5-methyl-isoxazol-4-ylmethoxy]-N-isopropyl-nicotinamide], the figure is 0.4 nM. The value for `C[C@@H](O)CNC(=O)c1ccc(OCc2conc2-c2ccc(F)cc2)nc1` [Example 337, 6-[3-(4-Fluoro-phenyl)-isoxazol-4-ylmethoxy]-N—((R)-2-hydroxy-propyl)-nicotinamide] was 9.5 nM; that for `Cc1onc(-c2ccc(Cl)cc2)c1COc1ccc(C(=O)N2CCS(=O)(=O)CC2)cn1` [Example 122, {6-[3-(4-Chloro-phenyl)-5-methyl-isoxazol-4-ylmethoxy]-pyridin-3-yl}-(1,1-dioxo-1,6-thiomorpholin-4-yl)-methanone] was 2.9 nM. With `CC(O)CNC(=O)c1ccc(OCc2conc2-c2ccc(Cl)cc2)nc1` (stereo not drawn) [Example 347, 6-[3-(4-Chloro-phenyl)-isoxazol-4-ylmethoxy]-N-(2-hydroxy-propyl)-nicotinamide], the Ki was determined as 7.1 nM. In the case of `Cc1onc(-c2cccnc2)c1COc1ccc(C(=O)NC2CCOCC2)cn1` [Example 159, 6-(5-Methyl-3-pyridin-3-yl-isoxazol-4-ylmethoxy)-N-(tetrahydro-pyran-4-yl)-nicotinamide], the Ki was 27.9 nM. As for `Cc1onc(-c2ccc(Cl)cc2)c1COc1ccc(C(=O)NC2CCOCC2)cn1` [Example 121, 6-[3-(4-Chloro-phenyl)-5-methyl-isoxazol-4-ylmethoxy]-N-(tetrahydro-pyran-4-yl)-nicotinamide], the figure is 0.8 nM. The value for `Cc1cc(C(=O)NC2CCOCC2)cnc1OCc1c(-c2ccccc2)noc1C` [Example 66, 5-Methyl-6-(5-methyl-3-phenyl-isoxazol-4-ylmethoxy)-N-(tetrahydro-pyran-4-yl)-nicotinamide] was 1.4 nM.
